Biological target: T1, Protein deacetylase HDAC6 (Homo sapiens) (UniProt Q9UBN7)
T1 sequence (whole entry): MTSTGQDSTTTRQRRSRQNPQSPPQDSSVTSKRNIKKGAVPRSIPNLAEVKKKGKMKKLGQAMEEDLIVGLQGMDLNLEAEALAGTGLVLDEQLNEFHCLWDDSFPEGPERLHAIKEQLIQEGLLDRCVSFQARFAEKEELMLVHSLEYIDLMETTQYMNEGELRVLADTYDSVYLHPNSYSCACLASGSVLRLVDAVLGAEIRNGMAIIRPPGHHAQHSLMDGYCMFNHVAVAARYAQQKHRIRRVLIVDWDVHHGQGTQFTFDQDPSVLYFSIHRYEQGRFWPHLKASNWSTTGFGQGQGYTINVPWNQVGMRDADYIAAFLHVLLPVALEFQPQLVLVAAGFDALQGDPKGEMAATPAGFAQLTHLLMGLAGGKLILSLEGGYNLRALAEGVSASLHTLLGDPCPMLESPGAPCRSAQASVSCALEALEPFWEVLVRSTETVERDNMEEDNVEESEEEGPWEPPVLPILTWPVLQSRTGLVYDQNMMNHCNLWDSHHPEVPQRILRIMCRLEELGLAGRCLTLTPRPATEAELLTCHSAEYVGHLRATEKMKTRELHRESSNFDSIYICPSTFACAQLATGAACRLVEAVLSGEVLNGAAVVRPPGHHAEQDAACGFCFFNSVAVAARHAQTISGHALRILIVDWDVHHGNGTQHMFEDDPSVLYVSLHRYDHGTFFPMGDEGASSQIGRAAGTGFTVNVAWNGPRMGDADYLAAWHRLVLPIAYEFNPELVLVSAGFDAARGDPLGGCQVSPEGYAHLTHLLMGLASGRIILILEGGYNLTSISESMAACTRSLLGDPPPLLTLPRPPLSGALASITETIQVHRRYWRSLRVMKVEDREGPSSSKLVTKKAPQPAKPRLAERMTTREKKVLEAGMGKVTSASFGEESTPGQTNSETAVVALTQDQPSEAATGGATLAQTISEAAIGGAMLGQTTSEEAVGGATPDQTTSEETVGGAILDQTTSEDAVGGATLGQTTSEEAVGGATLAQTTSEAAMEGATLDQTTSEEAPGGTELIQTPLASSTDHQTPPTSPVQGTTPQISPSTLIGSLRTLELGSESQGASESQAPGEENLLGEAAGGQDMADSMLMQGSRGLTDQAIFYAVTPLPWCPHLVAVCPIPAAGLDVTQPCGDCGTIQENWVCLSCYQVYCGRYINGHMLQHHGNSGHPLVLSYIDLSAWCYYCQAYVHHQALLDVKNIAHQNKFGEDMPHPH
Experiment: Inhibition of HDAC6 (unknown origin) using p53 residues 379 to 382 [RHKK(Ac)] as fluorogenic substrate assessed as residual activity at 4.57 x 10^-9M (reference value: 101.06%)
Conditions: dose 4.57 10^-9M

`NC(=O)c1cccc2[nH]c(-c3ccc(NCc4ccc(C(=O)Nc5ccccc5N)cc4)cc3)nc12` gave an Activity of 103%.

From ChEMBL document CHEMBL5550160, “Leveraging a rationally designed veliparib-based anilide eliciting anti-leukemic effects for the design of pH-responsive polymer nanoformulation” (Eur J Med Chem, 2024)
